Measured values reported in PubChem BioAssay (NCI).
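Growth conditions: 96-well plates. Treatment: test compound, 48 hours, 5 concentrations. Analysis: linear interpolation between bracketing concentrations; unreached endpoints set to highest concentration. At the TGI there is no net growth.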

How the values were obtained:
Assay in all cases: NCI tumour cell line growth inhibition, 48 h
786-0 renal = test system: 786-0 renal
A498 renal = test system: A498 renal
A549 NSCLC = test system: A549 NSCLC
ACHN renal = test system: ACHN renal
BT-549 breast = test system: BT-549 breast
CCRF-CEM leukemia = test system: CCRF-CEM leukemia
COLO 205 colon = test system: COLO 205 colon
DU-145 prostate = test system: DU-145 prostate
EKVX NSCLC = test system: EKVX NSCLC
HCT-116 colon = test system: HCT-116 colon
HCT-15 colon = test system: HCT-15 colon
HL-60(TB) leukemia = test system: HL-60(TB) leukemia
HOP-62 NSCLC = test system: HOP-62 NSCLC
HOP-92 NSCLC = test system: HOP-92 NSCLC
HS 578T breast = test system: HS 578T breast
HT29 colon = test system: HT29 colon
IGROV1 ovarian = test system: IGROV1 ovarian
K-562 leukemia = test system: K-562 leukemia
KM12 colon = test system: KM12 colon
M14 melanoma = test system: M14 melanoma
MALME-3M melanoma = test system: MALME-3M melanoma
MCF7 breast = test system: MCF7 breast
MDA-MB-231 breast = test system: MDA-MB-231 breast
MDA-MB-435 = test system: MDA-MB-435
MDA-N = test system: MDA-N
MOLT-4 leukemia = test system: MOLT-4 leukemia
NCI-H226 lung = test system: NCI-H226 lung
NCI-H23 lung = test system: NCI-H23 lung
NCI-H460 lung = test system: NCI-H460 lung
NCI-H522 lung = test system: NCI-H522 lung
NCI/ADR-RES ovarian = test system: NCI/ADR-RES ovarian
OVCAR-3 ovarian = test system: OVCAR-3 ovarian
OVCAR-4 ovarian = test system: OVCAR-4 ovarian
OVCAR-5 ovarian = test system: OVCAR-5 ovarian
OVCAR-8 ovarian = test system: OVCAR-8 ovarian
PC-3 prostate = test system: PC-3 prostate
RPMI-8226 leukemia = test system: RPMI-8226 leukemia
RXF 393 renal = test system: RXF 393 renal
SF-268 CNS = test system: SF-268 CNS
SF-295 CNS = test system: SF-295 CNS
SF-539 CNS = test system: SF-539 CNS
SK-MEL-2 melanoma = test system: SK-MEL-2 melanoma
SK-MEL-28 melanoma = test system: SK-MEL-28 melanoma
SK-OV-3 ovarian = test system: SK-OV-3 ovarian
SN12C renal = test system: SN12C renal
SNB-19 CNS = test system: SNB-19 CNS
SNB-75 CNS = test system: SNB-75 CNS
SR leukemia = test system: SR leukemia
SW-620 colon = test system: SW-620 colon
TK-10 renal = test system: TK-10 renal
U251 CNS = test system: U251 CNS
UACC-257 melanoma = test system: UACC-257 melanoma
UACC-62 melanoma = test system: UACC-62 melanoma
UO-31 renal = test system: UO-31 renal
CAKI-1 renal = test system: CAKI-1 renal
HCC-2998 colon = test system: HCC-2998 colon
LOX IMVI melanoma = test system: LOX IMVI melanoma
SK-MEL-5 melanoma = test system: SK-MEL-5 melanoma
T-47D breast = test system: T-47D breast

In the case of `O=C1N/N=C\c2ccc(cc2)OCc2cccc(n2)COc2ccc(cc2)/C=N\NC1=O`, the TGI (786-0 renal) was > 25 µM, the TGI (A498 renal) was > 25 µM and the TGI (A549 NSCLC) was > 25 µM. The TGI (ACHN renal) was > 25 µM, the TGI (BT-549 breast) was > 25 µM and the TGI (CCRF-CEM leukemia) was > 25 µM. For the same compound, the TGI (COLO 205 colon) was > 25 µM, the TGI (DU-145 prostate) was > 25 µM and the TGI (EKVX NSCLC) was > 25 µM. For the same compound, the TGI (HCT-116 colon) was > 25 µM, the TGI (HCT-15 colon) was > 25 µM and the TGI (HL-60(TB) leukemia) was > 25 µM. The TGI (HOP-62 NSCLC) was > 25 µM, the TGI (HOP-92 NSCLC) was > 25 µM and the TGI (HS 578T breast) was > 25 µM. The TGI (HT29 colon) was > 25 µM, the TGI (IGROV1 ovarian) was > 25 µM and the TGI (K-562 leukemia) was > 25 µM. The TGI (KM12 colon) was > 25 µM, the TGI (M14 melanoma) was > 25 µM and the TGI (MALME-3M melanoma) was > 25 µM. The TGI (MCF7 breast) was > 25 µM, the TGI (MDA-MB-231 breast) was > 25 µM and the TGI (MDA-MB-435) was > 25 µM. The TGI (MDA-N) was > 25 µM, the TGI (MOLT-4 leukemia) was > 25 µM and the TGI (NCI-H226 lung) was > 25 µM. The TGI (NCI-H23 lung) was > 25 µM, the TGI (NCI-H460 lung) was > 25 µM and the TGI (NCI-H522 lung) was > 25 µM. For the same compound, the TGI (NCI/ADR-RES ovarian) was > 25 µM, the TGI (OVCAR-3 ovarian) was > 25 µM and the TGI (OVCAR-4 ovarian) was > 25 µM. For the same compound, the TGI (OVCAR-5 ovarian) was > 25 µM, the TGI (OVCAR-8 ovarian) was > 25 µM and the TGI (PC-3 prostate) was > 25 µM. The TGI (RPMI-8226 leukemia) was > 25 µM, the TGI (RXF 393 renal) was > 25 µM and the TGI (SF-268 CNS) was > 25 µM. For the same compound, the TGI (SF-295 CNS) was > 25 µM, the TGI (SF-539 CNS) was > 25 µM and the TGI (SK-MEL-2 melanoma) was > 25 µM. For the same compound, the TGI (SK-MEL-28 melanoma) was > 25 µM, the TGI (SK-OV-3 ovarian) was > 25 µM and the TGI (SN12C renal) was > 25 µM. For the same compound, the TGI (SNB-19 CNS) was > 25 µM, the TGI (SNB-75 CNS) was > 25 µM and the TGI (SR leukemia) was > 25 µM. For the same compound, the TGI (SW-620 colon) was > 25 µM, the TGI (TK-10 renal) was > 25 µM and the TGI (U251 CNS) was > 25 µM. For the same compound, the TGI (UACC-257 melanoma) was > 25 µM, the TGI (UACC-62 melanoma) was > 25 µM and the TGI (UO-31 renal) was > 25 µM.
For `O=c1ccn(-c2ccccn2)c(=O)n1-c1ccccn1`, the TGI (786-0 renal) was > 100 µM, the TGI (A498 renal) was > 100 µM and the TGI (A549 NSCLC) was > 100 µM. The TGI (ACHN renal) was > 100 µM, the TGI (CAKI-1 renal) was > 100 µM and the TGI (CCRF-CEM leukemia) was > 100 µM. The TGI (COLO 205 colon) was > 100 µM, the TGI (DU-145 prostate) was > 100 µM and the TGI (EKVX NSCLC) was > 100 µM. The TGI (HCC-2998 colon) was > 100 µM, the TGI (HCT-116 colon) was > 100 µM and the TGI (HCT-15 colon) was > 100 µM. For the same compound, the TGI (HL-60(TB) leukemia) was > 100 µM, the TGI (HOP-62 NSCLC) was > 100 µM and the TGI (HOP-92 NSCLC) was > 100 µM. For the same compound, the TGI (HS 578T breast) was > 100 µM, the TGI (HT29 colon) was > 100 µM and the TGI (IGROV1 ovarian) was > 100 µM. For the same compound, the TGI (K-562 leukemia) was > 100 µM, the TGI (KM12 colon) was > 100 µM and the TGI (LOX IMVI melanoma) was > 100 µM. The TGI (M14 melanoma) was > 100 µM, the TGI (MALME-3M melanoma) was > 100 µM and the TGI (MCF7 breast) was > 100 µM. For the same compound, the TGI (MDA-MB-231 breast) was > 100 µM, the TGI (MDA-MB-435) was > 100 µM and the TGI (MDA-N) was > 100 µM. For the same compound, the TGI (MOLT-4 leukemia) was > 100 µM, the TGI (NCI-H226 lung) was > 100 µM and the TGI (NCI-H23 lung) was > 100 µM. The TGI (NCI-H460 lung) was > 100 µM, the TGI (NCI-H522 lung) was > 100 µM and the TGI (NCI/ADR-RES ovarian) was > 100 µM. The TGI (OVCAR-3 ovarian) was > 100 µM, the TGI (OVCAR-4 ovarian) was > 100 µM and the TGI (OVCAR-5 ovarian) was > 100 µM. The TGI (OVCAR-8 ovarian) was > 100 µM, the TGI (PC-3 prostate) was > 100 µM and the TGI (RPMI-8226 leukemia) was > 100 µM. For the same compound, the TGI (RXF 393 renal) was > 100 µM, the TGI (SF-268 CNS) was > 100 µM and the TGI (SF-295 CNS) was > 100 µM. The TGI (SF-539 CNS) was > 100 µM, the TGI (SK-MEL-2 melanoma) was > 100 µM and the TGI (SK-MEL-28 melanoma) was > 100 µM. The TGI (SK-MEL-5 melanoma) was > 100 µM, the TGI (SK-OV-3 ovarian) was > 100 µM and the TGI (SN12C renal) was > 100 µM. The TGI (SNB-19 CNS) was > 100 µM, the TGI (SNB-75 CNS) was > 100 µM and the TGI (SW-620 colon) was > 100 µM. The TGI (T-47D breast) was > 100 µM, the TGI (TK-10 renal) was > 100 µM and the TGI (U251 CNS) was > 100 µM. The TGI (UACC-257 melanoma) was > 100 µM and the TGI (UO-31 renal) was > 100 µM.
